Laboratory results published in patent US12616676B2, “Preparation method and use of modified hydrophobic excipient” (ZHEJIANG ZHIDA PHARMACEUTICAL CO., LTD., priority 2019, dated 2026).
Where two headings read alike, the source gives them in different places.

Experiment: solubility of paclitaxel in olive oil, castor oil and hydrophobic excipients (crystal formation after drying)
Assay type: physicochemical
Experimental: The specific experimental method was as follows. […] The chloroform solution was mixed with 0.5 ml of chloroform, from which 0.5 ml of diluent was taken and two-fold serial dilution was performed by using chloroform. Then 0.5 ml of a chloroform solution of paclitaxel (10 mg/ml) was added to the above-mentioned sample after the two-fold serial dilution, and then left in a hood to be naturally volatilized overnight. Crystal formation in the dried sample was observed and recorded.

Compound	solubility of paclitaxel compared with olive oil and castor oil (data comparison in table 1)	solubility of paclitaxel (crystal formation in the dried sample) (hydrophobic excipient 0.98 mg, 0.5 ml chloroform solution of paclitaxel (10 mg/ml), volatilized overnight)	solubility of paclitaxel (crystal formation in the dried sample) (hydrophobic excipient 1.95 mg, 0.5 ml chloroform solution of paclitaxel (10 mg/ml), volatilized overnight)	solubility of paclitaxel (crystal formation in the dried sample) (hydrophobic excipient 3.90 mg, 0.5 ml chloroform solution of paclitaxel (10 mg/ml), volatilized overnight)	solubility of paclitaxel (crystal formation in the dried sample) (hydrophobic excipient 7.81 mg, 0.5 ml chloroform solution of paclitaxel (10 mg/ml), volatilized overnight)	solubility of paclitaxel (crystal formation in the dried sample) (hydrophobic excipient 15.65 mg, 0.5 ml chloroform solution of paclitaxel (10 mg/ml), volatilized overnight)	solubility of paclitaxel (crystal formation in the dried sample) (hydrophobic excipient 31.30 mg, 0.5 ml chloroform solution of paclitaxel (10 mg/ml), volatilized overnight)	solubility of paclitaxel (crystal formation in the dried sample) (hydrophobic excipient 62.50 mg, 0.5 ml chloroform solution of paclitaxel (10 mg/ml), volatilized overnight)	solubility of paclitaxel (crystal formation in the dried sample) (hydrophobic excipient 125.00 mg, 0.5 ml chloroform solution of paclitaxel (10 mg/ml), volatilized overnight)	solubility of paclitaxel (crystal formation in the dried sample) (hydrophobic excipient 250.00 mg, 0.5 ml chloroform solution of paclitaxel (10 mg/ml), volatilized overnight)	solubility of paclitaxel (crystal formation in the dried sample)
CCCCCCCC/C=C\CCCCCCCCNC(=O)CC[C@@H](C)[C@H]1CC[C@H]2[C@@H]3[C@H](OC(=O)CNC(=O)[C@H](CCCCNC(=O)OC(C)(C)C)NC(=O)OCC4c5ccccc5-c5ccccc54)C[C@@H]4C[C@H](OC(=O)CNC(=O)[C@H](CCCCNC(=O)OC(C)(C)C)NC(=O)OCC5c6ccccc6-c6ccccc65)CC[C@]4(C)[C@H]3C[C@H](OC(=O)CNC(=O)[C@H](CCCCNC(=O)OC(C)(C)C)NC(=O)OCC3c4ccccc4-c4ccccc43)[C@]12C [Example 4]	greater than that in olive oil and castor oil	+	+	+	+/−	−	−	−	−	−	
castor oil											+
